Measured values as given in PubChem BioAssay (NCI).
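Briefly, cells in 96-well plates were exposed to five compound concentrations for 48 h, and endpoints were estimated by linear interpolation. GI50 marks 50% less growth. TGI is the concentration that stops growth completely.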

Assays:
Assay in all cases: NCI tumour cell line growth inhibition, 48 h
786-0 renal = system: 786-0 renal
A498 renal = system: A498 renal
A549 NSCLC = system: A549 NSCLC
ACHN renal = system: ACHN renal
BT-549 breast = system: BT-549 breast
CAKI-1 renal = system: CAKI-1 renal
CCRF-CEM leukemia = system: CCRF-CEM leukemia
COLO 205 colon = system: COLO 205 colon
DU-145 prostate = system: DU-145 prostate
EKVX NSCLC = system: EKVX NSCLC
HCC-2998 colon = system: HCC-2998 colon
HCT-116 colon = system: HCT-116 colon
HCT-15 colon = system: HCT-15 colon
HL-60(TB) leukemia = system: HL-60(TB) leukemia
HOP-62 NSCLC = system: HOP-62 NSCLC
HOP-92 NSCLC = system: HOP-92 NSCLC
HS 578T breast = system: HS 578T breast
HT29 colon = system: HT29 colon
IGROV1 ovarian = system: IGROV1 ovarian
K-562 leukemia = system: K-562 leukemia
KM12 colon = system: KM12 colon
LOX IMVI melanoma = system: LOX IMVI melanoma
M14 melanoma = system: M14 melanoma
MALME-3M melanoma = system: MALME-3M melanoma
MCF7 breast = system: MCF7 breast
MDA-MB-435 = system: MDA-MB-435
MDA-MB-468 breast = system: MDA-MB-468 breast
NCI-H226 lung = system: NCI-H226 lung
NCI-H23 lung = system: NCI-H23 lung
NCI-H460 lung = system: NCI-H460 lung
NCI-H522 lung = system: NCI-H522 lung
NCI/ADR-RES ovarian = system: NCI/ADR-RES ovarian
OVCAR-3 ovarian = system: OVCAR-3 ovarian
OVCAR-5 ovarian = system: OVCAR-5 ovarian
OVCAR-8 ovarian = system: OVCAR-8 ovarian
PC-3 prostate = system: PC-3 prostate
RPMI-8226 leukemia = system: RPMI-8226 leukemia
SF-268 CNS = system: SF-268 CNS
SF-295 CNS = system: SF-295 CNS
SF-539 CNS = system: SF-539 CNS
SK-MEL-2 melanoma = system: SK-MEL-2 melanoma
SK-MEL-28 melanoma = system: SK-MEL-28 melanoma
SK-MEL-5 melanoma = system: SK-MEL-5 melanoma
SK-OV-3 ovarian = system: SK-OV-3 ovarian
SNB-75 CNS = system: SNB-75 CNS
SW-620 colon = system: SW-620 colon
T-47D breast = system: T-47D breast
TK-10 renal = system: TK-10 renal
U251 CNS = system: U251 CNS
UACC-257 melanoma = system: UACC-257 melanoma
UO-31 renal = system: UO-31 renal

Structure (SMILES): CN(C)c1nc(NCCNS(=O)(=O)c2ccc(C3=Nc4c(N)nc(N)nc4NC(c4ccc(F)cc4)C3)cc2)nc(Nc2ccc(F)cc2)n1 (configuration not stated)
- GI50 (786-0 renal): 4.77 µM
- TGI (786-0 renal): > 100 µM
- GI50 (A498 renal): 22.1 µM
- TGI (A498 renal): > 100 µM
- GI50 (A549 NSCLC): > 100 µM
- TGI (A549 NSCLC): > 100 µM
- GI50 (ACHN renal): > 100 µM
- TGI (ACHN renal): > 100 µM
- GI50 (BT-549 breast): 3.26 µM
- TGI (BT-549 breast): 18.2 µM
- GI50 (CAKI-1 renal): 6.5 µM
- TGI (CAKI-1 renal): > 100 µM
- GI50 (CCRF-CEM leukemia): 3.99 µM
- TGI (CCRF-CEM leukemia): > 100 µM
- GI50 (COLO 205 colon): 11.8 µM
- TGI (COLO 205 colon): > 100 µM
- GI50 (DU-145 prostate): 52 µM
- TGI (DU-145 prostate): > 100 µM
- GI50 (EKVX NSCLC): 5.17 µM
- TGI (EKVX NSCLC): > 100 µM
- GI50 (HCC-2998 colon): 4.22 µM
- TGI (HCC-2998 colon): > 100 µM
- GI50 (HCT-116 colon): 4.54 µM
- TGI (HCT-116 colon): > 100 µM
- GI50 (HCT-15 colon): > 100 µM
- TGI (HCT-15 colon): > 100 µM
- GI50 (HL-60(TB) leukemia): 3.12 µM
- TGI (HL-60(TB) leukemia): > 100 µM
- GI50 (HOP-62 NSCLC): 96 µM
- TGI (HOP-62 NSCLC): > 100 µM
- GI50 (HOP-92 NSCLC): 3.09 µM
- TGI (HOP-92 NSCLC): 23.3 µM
- GI50 (HS 578T breast): 5.7 µM
- TGI (HS 578T breast): > 100 µM
- GI50 (HT29 colon): 3.88 µM
- TGI (HT29 colon): > 100 µM
- GI50 (IGROV1 ovarian): 5.01 µM
- TGI (IGROV1 ovarian): > 100 µM
- GI50 (K-562 leukemia): 2.8 µM
- TGI (K-562 leukemia): > 100 µM
- GI50 (KM12 colon): 4.69 µM
- TGI (KM12 colon): > 100 µM
- GI50 (LOX IMVI melanoma): 2.62 µM
- TGI (LOX IMVI melanoma): 9.13 µM
- GI50 (M14 melanoma): 3.84 µM
- TGI (M14 melanoma): 25.3 µM
- GI50 (MALME-3M melanoma): 6.28 µM
- TGI (MALME-3M melanoma): > 100 µM
- GI50 (MCF7 breast): 3.16 µM
- TGI (MCF7 breast): 43.7 µM
- GI50 (MDA-MB-435): 5.93 µM
- TGI (MDA-MB-435): > 100 µM
- GI50 (MDA-MB-468 breast): 2.15 µM
- TGI (MDA-MB-468 breast): 6.24 µM
- GI50 (NCI-H226 lung): > 100 µM
- TGI (NCI-H226 lung): > 100 µM
- GI50 (NCI-H23 lung): 54.1 µM
- TGI (NCI-H23 lung): > 100 µM
- GI50 (NCI-H460 lung): 4.74 µM
- TGI (NCI-H460 lung): > 100 µM
- GI50 (NCI-H522 lung): 34.8 µM
- TGI (NCI-H522 lung): > 100 µM
- GI50 (NCI/ADR-RES ovarian): > 100 µM
- TGI (NCI/ADR-RES ovarian): > 100 µM
- GI50 (OVCAR-3 ovarian): 8.09 µM
- TGI (OVCAR-3 ovarian): > 100 µM
- GI50 (OVCAR-5 ovarian): > 100 µM
- TGI (OVCAR-5 ovarian): > 100 µM
- GI50 (OVCAR-8 ovarian): 12 µM
- TGI (OVCAR-8 ovarian): > 100 µM
- GI50 (PC-3 prostate): 5.04 µM
- TGI (PC-3 prostate): > 100 µM
- GI50 (RPMI-8226 leukemia): 5.25 µM
- TGI (RPMI-8226 leukemia): > 100 µM
- GI50 (SF-268 CNS): 4.83 µM
- TGI (SF-268 CNS): > 100 µM
- GI50 (SF-295 CNS): 6.71 µM
- TGI (SF-295 CNS): > 100 µM
- GI50 (SF-539 CNS): 3.89 µM
- TGI (SF-539 CNS): > 100 µM
- GI50 (SK-MEL-2 melanoma): 8.17 µM
- TGI (SK-MEL-2 melanoma): 29 µM
- GI50 (SK-MEL-28 melanoma): 15.7 µM
- TGI (SK-MEL-28 melanoma): > 100 µM
- GI50 (SK-MEL-5 melanoma): 3.36 µM
- TGI (SK-MEL-5 melanoma): 14.9 µM
- GI50 (SK-OV-3 ovarian): > 100 µM
- TGI (SK-OV-3 ovarian): > 100 µM
- GI50 (SNB-75 CNS): 2.53 µM
- TGI (SNB-75 CNS): 74 µM
- GI50 (SW-620 colon): 8.27 µM
- TGI (SW-620 colon): > 100 µM
- GI50 (T-47D breast): 4.86 µM
- TGI (T-47D breast): > 100 µM
- GI50 (TK-10 renal): > 100 µM
- TGI (TK-10 renal): > 100 µM
- GI50 (U251 CNS): 6.35 µM
- TGI (U251 CNS): > 100 µM
- GI50 (UACC-257 melanoma): 11.4 µM
- TGI (UACC-257 melanoma): > 100 µM
- GI50 (UO-31 renal): > 100 µM
- TGI (UO-31 renal): > 100 µM
